Values after ≈ are worked out from the molar mass of the structure shown. Read-outs that look alike come from different tables or passages of the source.
Experiments:
S. aureus ATCC 25923 = assay: MIC, selected panel of Gram-positive and Gram-negative strains (Example 5); assay type: cell-based
[1] = test system: S. aureus BAA-1556 (USA300-Type MRSA, FQ-R); assay: as above; assay type: cell-based, Staphylococcus aureus
A. baumannii ATCC 19606 = assay: as above; assay type: cell-based, Acinetobacter baumannii
B. thailandensis E264 = assay: microbe, parasite or virus in culture; assay type: cell-based, Burkholderia thailandensis; conditions: Burkholderia thailandensis, E264, read-out: MIC B. thailandensis E264
E. coli ATCC 25922 = assay: MIC, selected panel of Gram-positive and Gram-negative strains (Example 5); assay type: cell-based, Escherichia coli
P. aeruginosa ATCC 27853 = assay: as above; assay type: cell-based
[2] = test system: S. aureus ATCC 43300 (MRSA, FQ-S); assay: as above; assay type: cell-based, Staphylococcus aureus
B. thailandensis = assay: microbe, parasite or virus in culture; assay type: cell-based, Burkholderia thailandensis; conditions: Burkholderia thailandensis, read-out: MIC90 B. thailandensis
[3] = Staphylococcus aureus, ATCC25923, read-out: MIC S. aureus ATCC 25923
[4] = Staphylococcus aureus, read-out: MIC S. aureus BAA-1556 (USA300-Type MRSA, FQ-R)
[5] = Acinetobacter baumannii, ATCC19606, read-out: MIC A. baumannii ATCC 19606
[6] = Escherichia coli, ATCC25922, read-out: MIC E. coli ATCC 25922
[7] = Pseudomonas aeruginosa, ATCC27853, read-out: MIC P. aeruginosa ATCC 27853
[8] = Staphylococcus aureus, read-out: MIC S. aureus ATCC 43300 (MRSA, FQ-S)
[9] = Staphylococcus aureus, ATCC25923; read-out: MIC S. aureus ATCC 25923
[10] = Staphylococcus aureus; read-out: MIC S. aureus BAA-1556 (USA300-Type MRSA, FQ-R)
[11] = Acinetobacter baumannii, ATCC19606; read-out: MIC A. baumannii ATCC 19606
[12] = Escherichia coli, ATCC25922; read-out: MIC E. coli ATCC 25922
[13] = Pseudomonas aeruginosa, ATCC27853; read-out: MIC P. aeruginosa ATCC 27853
[14] = Staphylococcus aureus; read-out: MIC S. aureus ATCC 43300 (MRSA, FQ-S)

| Structure (SMILES) | MIC (S. aureus ATCC 25923; [3]) [µg/mL] | MIC [1, 4] [µg/mL] | MIC (A. baumannii ATCC 19606; [5]) [µg/mL] | MIC (B. thailandensis E264) [µg/mL] | MIC (E. coli ATCC 25922; [6]) [µg/mL] | MIC (P. aeruginosa ATCC 27853; [7]) [µg/mL] | MIC [2, 8] [µg/mL] | MIC90 (B. thailandensis) [µg/mL] | MIC (S. aureus ATCC 25923; [9]) [µg/mL] | MIC [1, 10] [µg/mL] | MIC (A. baumannii ATCC 19606; [11]) [µg/mL] | MIC (E. coli ATCC 25922; [12]) [µg/mL] | MIC (P. aeruginosa ATCC 27853; [13]) [µg/mL] | MIC [2, 14] [µg/mL] |
| --- | --- | --- | --- | --- | --- | --- | --- | --- | --- | --- | --- | --- | --- | --- |
| Cc1c(-c2ccc3[nH]cnc3c2)ccn2c(=O)c(C(=O)[O-])cc(C3CC3)c12.[K+] [Compound 74K salt, potassium 8-(1H-benzo[d]imidazol-5-yl)-1-cyclopropyl-9-methyl-4-oxo-4H-quinolizine-3-carboxylate] | 0.016 | 0.5 | 0.5 | 2 | 0.064 to 0.125 | 8 | 0.016 |  |  |  |  |  |  |  |
| Cc1c(-c2cccc3[nH]ncc23)ccn2c(=O)c(C(=O)[O-])cc(C3CC3)c12.[K+] [Compound 82K salt, potassium 8-(1H-indazol-4-yl)-1-cyclopropyl-9-methyl-4-oxo-4H-quinolizine-3-carboxylate] | 0.016 | 1 | 1 | 4 | 0.125 to 0.25 | 8 | 0.016 |  |  |  |  |  |  |  |
| Cc1c(-c2ccc3cn[nH]c3c2)ccn2c(=O)c(C(=O)[O-])cc(C3CC3)c12.[K+] [Compound 83K salt, potassium 8-(1H-indazol-6-yl)-1-cyclopropyl-9-methyl-4-oxo-4H-quinolizine-3-carboxylate] | ≤ 0.004 | 0.064 | 0.032 |  | 0.016 | 0.5 | ≤ 0.004 |  |  |  |  |  |  |  |
| Cc1c(-c2ccc3c(c2)C(=O)NC3)ccn2c(=O)c(C(=O)[O-])cc(C3CC3)c12.[K+] [Compound 68K salt, potassium 8-(3-oxoisoindolin-5-yl)-1-cyclopropyl-9-methyl-4-oxo-4H-quinolizine-3-carboxylate] | ≤ 0.004 | 0.25 | 0.25 | 1 | 0.064 | 2 | ≤ 0.004 |  |  |  |  |  |  |  |
| Cc1cc(-c2ccn3c(=O)c(C(=O)O)cc(C4CC4)c3c2C)c(Cl)cc1N [Compound 11, 8-(2-chloro-4-amino-5-methyl-phenyl)-1-cyclopropyl-9-methyl-4-oxo-quinolizine-3-carboxylic acid] |  |  |  |  |  |  |  | < 0.048 |  |  |  |  |  |  |
| Cc1c(-c2cn[nH]c2)ccn2c(=O)c(C(=O)[O-])cc(C3CC3)c12.[K+] [Compound 67K salt, potassium 8-(1H-pyrazol-4-yl)-1-cyclopropyl-9-methyl-4-oxo-4H-quinolizine-3-carboxylate] | 0.016 | 1 | 0.25 | 0.25 | 0.032 | 2 | 0.016 |  |  |  |  |  |  |  |
| Cc1c(-c2ccc(C#N)cc2)ccn2c(=O)c(C(=O)O)cc(C3CC3)c12 [Compound 14, 8-(4-cyanophenyl)-1-cyclopropyl-9-methyl-4-oxo-quinolizine-3-carboxylic acid] |  |  |  |  |  |  |  | < 0.048 |  |  |  |  |  |  |
| Cc1c(-c2ccc(C(=O)C(F)(F)F)cc2)ccn2c(=O)c(C(=O)O)cc(C3CC3)c12 [Compound 63, 8-[4-(2,2,2-trifluoroacetyl)phenyl]-1-cyclopropyl-9-methyl-4-oxo-quinolizine-3-carboxylic acid] |  |  |  | 2 (≈ 4.82 µM) |  |  |  |  | 0.064 (≈ 0.154 µM) | 1 (≈ 2.41 µM) | 2 (≈ 4.82 µM) | 0.5 (≈ 1.2 µM) | > 8 | 0.032 (≈ 0.077 µM) |
| Cc1c(-c2ccc(CN)s2)ccn2c(=O)c(C(=O)O)cc(C3CC3)c12 [Compound 13] |  |  |  |  |  |  |  | 0.195 (≈ 0.55 µM) |  |  |  |  |  |  |
| Cc1c(-c2ccc3c(c2)NC(=O)C(N)C3)ccn2c(=O)c(C(=O)O)cc(C3CC3)c12 (centres unmarked) [Compound 54, 8-(3-amino-2-oxo-3,4-dihydro-1H-quinolin-7-yl)-1-cyclopropyl-9-methyl-4-oxo-quinolizine-3-carboxylic acid] |  |  |  | 4 (≈ 9.91 µM) |  |  |  |  | 0.064 to 0.125 (≈ 0.159 to 0.31 µM) | 0.5 (≈ 1.24 µM) | 4 (≈ 9.91 µM) | 0.25 (≈ 0.62 µM) | > 8 | 0.064 (≈ 0.159 µM) |
| Cc1c(-c2ccc(O)nc2)ccn2c(=O)c(C(=O)[O-])cc(C3CC3)c12.[K+] [Compound 55K salt, potassium 8-(6-hydroxypyridin-3-yl)-1-cyclopropyl-9-methyl-4-oxo-4H-quinolizine-3-carboxylate] | 0.5 | 8 | 8 | 8 | 0.5 | > 8 | 0.125 to 0.25 |  |  |  |  |  |  |  |
| Cc1c(-c2ccc3[nH]ncc3c2)c(F)cn2c(=O)c(C(=O)[O-])cc(C3CC3)c12.[K+] [Compound 75K salt, potassium 8-(1H-indazol-5-yl)-1-cyclopropyl-7-fluoro-9-methyl-4-oxo-4H-quinolizine-3-carboxylate] | ≤ 0.004 | 0.032 | 0.064 | 0.25 | 0.032 | 1 | ≤ 0.004 |  |  |  |  |  |  |  |
| Cc1c(C2=CCNCC2)c(F)cn2c(=O)c(C(=O)[O-])cc(C3CC3)c12.[K+] [Compound 62K salt, potassium 8-(1,2,3,6-tetrahydropyridin-4-yl)-1-cyclopropyl-7-fluoro-9-methyl-4-oxo-4H-quinolizine-3-carboxylate] | 0.25 | 4 | 1 | 2 | 0.032 | 1 |  |  |  |  |  |  |  |  |
| Cc1c(-c2cnc(N)nc2)ccn2c(=O)c(C(=O)O)cc(C3CC3)c12 [Compound 57, 8-(2-aminopyrimidin-5-yl)-1-cyclopropyl-9-methyl-4-oxo-quinolizine-3-carboxylic acid] |  |  |  | > 8 |  |  |  |  | 0.25 to 0.5 (≈ 0.743 to 1.49 µM) | 8 (≈ 23.8 µM) | 8 (≈ 23.8 µM) | 1 (≈ 2.97 µM) | > 8 | 0.25 (≈ 0.743 µM) |
| Cc1c(-c2ccc(O)c(CN)c2)ccn2c(=O)c(C(=O)[O-])cc(C3CC3)c12.[K+] [Compound 72K salt, potassium 8-(3-(aminomethyl)-4-hydroxyphenyl)-1-cyclopropyl-9-methyl-4-oxo-4H-quinolizine-3-carboxylate] | 0.008 | 0.25 | 0.25 | 2 | 0.008 to 0.016 | 0.5 | 0.008 to 0.016 |  |  |  |  |  |  |  |
| Cc1c(-c2ccncc2F)ccn2c(=O)c(C(=O)[O-])cc(C3CC3)c12.[K+] [Compound 58K salt, potassium 8-(3-fluoropyridin-4-yl)-1-cyclopropyl-9-methyl-4-oxo-4H-quinolizine-3-carboxylate] | 0.064 | 1 to 2 | 1 | 1 | 0.25 | > 8 | 0.064 |  |  |  |  |  |  |  |
| Cc1c(-c2cnc3[nH]ccc3c2)ccn2c(=O)c(C(=O)[O-])cc(C3CC3)c12.[K+] [Compound 85K salt, potassium 8-(1H-pyrrolo[2,3-b]pyridin-5-yl)-1-cyclopropyl-9-methyl-4-oxo-4H-quinolizine-3-carboxylate] | ≤ 0.004 | 0.064 to 0.125 | 0.064 | 0.25 | 0.032 | 1 | ≤ 0.004 |  |  |  |  |  |  |  |
| Cc1c(-c2ccncc2)c(F)cn2c(=O)c(C(=O)[O-])cc(C3CC3)c12.[K+] [Compound 59K salt, potassium 8-(pyridin-4-yl)-1-cyclopropyl-7-fluoro-9-methyl-4-oxo-4H-quinolizine-3-carboxylate] | 0.032 | 0.5 | 0.25 | 0.5 | 0.064 | 4 | 0.016 |  |  |  |  |  |  |  |
| Cc1cc(-c2ccn3c(=O)c(C(=O)[O-])cc(C4CC4)c3c2C)ccn1.[K+] [Compound 65K salt, potassium 8-(2-methylpyridin-4-yl)-1-cyclopropyl-9-methyl-4-oxo-4H-quinolizine-3-carboxylate] | 0.016 | 0.25 | 0.25 | 0.5 | 0.032 to 0.064 | 4 | 0.008 |  |  |  |  |  |  |  |
| Cc1ccc(-c2ccn3c(=O)c(C(=O)O)cc(C4CC4)c3c2C)cc1 [Compound 15, 8-(p-tolyl)-1-cyclopropyl-9-methyl-4-oxo-quinolizine-3-carboxylic acid] |  |  |  |  |  |  |  | < 0.048 |  |  |  |  |  |  |
| Cc1c(-c2ccc(CN)o2)ccn2c(=O)c(C(=O)O)cc(C3CC3)c12 [Compound 12] |  |  |  |  |  |  |  | 0.39 (≈ 1.15 µM) |  |  |  |  |  |  |
| Cc1c(-c2ccc(N)c(CN)c2)ccn2c(=O)c(C(=O)[O-])cc(C3CC3)c12.[K+] [Compound 76K salt, potassium 8-(4-amino-3-(aminomethyl)phenyl)-1-cyclopropyl-9-methyl-4-oxo-4H-quinolizine-3-carboxylate] | 0.016 | 0.25 | 0.25 | 2 | 0.032 | 1 | 0.008 to 0.016 |  |  |  |  |  |  |  |

Reference: US10155021B2, “Antimicrobial 4-oxoquinolizines” (Emergent Product Development Gaithersburg Inc., priority 2011, dated 2018)
